According to patent publication US5618812A, “Benzodiazepine derivatives” (Merck Sharp & Dohme, Ltd., priority 1992, dated 1997):
Where a name gives a salt, the structure may show the parent alone. Read-outs that look alike come from different tables or passages of the source.

Key:
[1] = biological target: T1, CCK-A (Rattus norvegicus, UniProt P30551); experiment: biochemical; format: binding; details: read-out: CCK RECEPTOR BINDING RESULTS IC50 125I-CCK Pancreas
T1 sequence (P30551 1-444): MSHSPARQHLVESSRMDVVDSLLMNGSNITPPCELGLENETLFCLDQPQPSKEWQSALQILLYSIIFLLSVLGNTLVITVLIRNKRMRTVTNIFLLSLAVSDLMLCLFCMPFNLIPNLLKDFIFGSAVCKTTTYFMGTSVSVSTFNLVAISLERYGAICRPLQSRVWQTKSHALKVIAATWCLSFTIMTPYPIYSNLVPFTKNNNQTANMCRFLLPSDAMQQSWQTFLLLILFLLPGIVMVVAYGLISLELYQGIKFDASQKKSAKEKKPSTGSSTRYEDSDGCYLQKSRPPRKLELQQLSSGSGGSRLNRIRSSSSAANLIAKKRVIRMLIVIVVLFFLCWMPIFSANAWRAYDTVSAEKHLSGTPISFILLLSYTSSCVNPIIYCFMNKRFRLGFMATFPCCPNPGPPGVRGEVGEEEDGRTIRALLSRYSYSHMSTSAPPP
Description: (§1) The CCK-A and CCK-B antagonising activity of the compounds described herein was evaluated using the assays described in published European patent application no. 0514133. The method essentially involves determining the concentration of the test compound required to displace 50% of the specific ^125 I-CCK from rat pancreas (CCK-A) or guinea pig brain (CCK-B).

[2] = biological target: T2, CCK-B (Cavia porcellus, UniProt H0VZC5); experiment: displacement of specific 125I-CCK from guinea pig brain (CCK-B receptor binding)
T2 construct: guinea pig brain (CCK-B); from tissue; host or cells: guinea pig brain
T2 sequence (H0VZC5 1-426): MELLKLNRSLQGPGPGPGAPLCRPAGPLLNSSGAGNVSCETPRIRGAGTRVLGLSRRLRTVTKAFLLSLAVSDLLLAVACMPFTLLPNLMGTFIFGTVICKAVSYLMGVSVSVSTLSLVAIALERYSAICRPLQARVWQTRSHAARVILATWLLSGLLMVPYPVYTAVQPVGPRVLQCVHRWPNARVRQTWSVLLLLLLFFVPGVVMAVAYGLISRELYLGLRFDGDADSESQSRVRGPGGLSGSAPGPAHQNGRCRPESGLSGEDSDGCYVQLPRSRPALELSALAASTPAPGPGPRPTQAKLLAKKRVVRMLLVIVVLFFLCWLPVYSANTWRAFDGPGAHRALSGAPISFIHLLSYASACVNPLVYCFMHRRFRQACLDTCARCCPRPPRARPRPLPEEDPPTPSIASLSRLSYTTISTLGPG
Description: as §1, with “(CCK-B). The data in Table 1 were obtained for compounds of the Examples.” for “(CCK-B).”

[3] = read-out: CCK RECEPTOR BINDING RESULTS IC50 125I-CCK Brain
[4] = CCK RECEPTOR BINDING RESULTS IC50 125I-CCK Brain

| IC50 ([1]; rat pancreas (CCK-A), 125I-CCK) [µM] | IC50 [2, 3] [µM] | IC50 [1] [µM] | SMILES | IC50 [2, 4] [µM] |
| --- | --- | --- | --- | --- |
| > 3 | 0.785 |  | Cc1cccc(NC(=O)NC2N=C(N(C)CCN3CCOCC3)c3ccccc3N(C)C2=O)c1 (racemic) [Example 85, N-[3(R,S)-2,3-Dihydro-5-(N-(2-N-morpholinoethyl)-N-methylamino)-1-methyl-2-oxo-1H-1,4-benzodiazepin-3-yl]-N'-[3-methylphenyl]urea] |  |
| 0.981 | 0.00035 |  | Cc1cccc(NC(=O)NC2N=C(N3CCC(C)CC3)c3ccccc3N(C)C2=O)c1 (single isomer, unassigned) [8 (enantiomer A)] |  |
| 0.00042 | 0.0126 |  | Cc1cccc(NC(=O)NC2N=C(N3CCC(C)(C)CC3)c3ccccc3N(C)C2=O)c1 (single isomer, unassigned) [10 (enantiomer B)] |  |
| > 3 | 0.00061 |  | CN1C(=O)C(NC(=O)Nc2ccc3c(c2)CCC3)N=C(N(C)C2CCCCCC2)c2ccccc21 (single isomer, unassigned; (-)) [Example 70, (-)-5-(N-Cycloheptyl-N-methylamino)-2,3-dihydro-1-methyl-2-oxo-1H-1,4-benzodiazepin-3-yl-N'-[5-indanyl]urea. Hydrochloride] |  |
| 0.176 | 0.0103 |  | Cc1cccc(NC(=O)NC2N=C(N(C)Cc3ccccc3)c3ccccc3N(C)C2=O)c1 (racemic) [Example 72, N-[3(R,S)-5-(N-Benzyl-N-methylamino)-2,3-dihydro-1-methyl-2-oxo-1H-1,4-benzodiazepin-3-yl]-N'-[3-methylphenyl]urea] |  |
| 2 | 0.0001 |  | Cc1cccc(NC(=O)NC2N=C(N(C)C3CCCCCC3)c3ccccc3N(C)C2=O)c1 (single isomer, unassigned; (-)) [Example 67, (-)-5-(N-Cycloheptyl-N-methylamino)-2,3-dihydro-1-methyl-2-oxo-1H-1,4-benzodiazepin-3-yl-N'-[3-methylphenyl]urea, Hydrochloride] |  |
| 0.0534 | 0.0266 |  | Cc1cccc(NC(=O)NC2N=C(N(C)C3CCCCCC3)c3ccccc3N(C)C2=O)c1 (single isomer, unassigned; (+)) [Example 68, (+)-5-(N-Cycloheptyl-N-methylamino)-2,3-dihydro-1-methyl-2-oxo-1H-1,4-benzodiazepin-3-yl-N'-[3-methylphenyl]urea. Hydrochloride] |  |
| 0.138 | 0.0137 |  | Cc1cccc(NC(=O)NC2N=C(N(C)C3CCCCC3)c3ccccc3N(C)C2=O)c1 (single isomer, unassigned; (+)) [Example 65, (+)5-(N-Cyclohexyl-N-methylamino)-2,3-dihydro-2-oxo-1-methyl-1H-1,4-benzodiazepin-3-yl-N'[3-methylphenyl]urea. Hydrochloride] |  |
| > 3 | 1.9 |  | Cc1cccc(NC(=O)NC2N=C(NCCN(C)C)c3ccccc3N(C)C2=O)c1 (racemic) [Example 84, N-[3(R,S)-2,3-Dihydro-5-(2-(N,N-dimethylamino)ethylamino)-1-methyl-2-oxo-1H-1,4-benzodiazepin-3-yl]-N'-[3-methylphenyl]urea dihydrochloride] |  |
| 0.235 | 0.0109 |  | Cc1cccc(NC(=O)NC2N=C(N3[C@H](C)CCC[C@@H]3C)c3ccccc3N(C)C2=O)c1 (stereo partly drawn) [Example 6, N-[3(R,S)-2,3-Dihydro-5-(cis-2,6-dimethylpiperidin-1-yl)-1-methyl-2-oxo-1H-1,4-benzodiazepin-3-yl]N'-[3-methylphenyl]urea] |  |
| 0.00261 | 0.0232 |  | Cc1cccc(NC(=O)NC2N=C(N3CCC(C)CC3)c3ccccc3N(C)C2=O)c1 (single isomer, unassigned) [8 (enantiomer B)] |  |
| 0.815 | 0.00047 |  | CN1C(=O)C(NC(=O)Nc2ccc3c(c2)CCC3)N=C(N(C)C2CCCCC2)c2ccccc21 (racemic) [Example 82, N-[3(R,S)-5-(N-Cyclohexyl-N-methylamino)-2,3-dihydro-1-methyl-2-oxo-1H-1,4-benzodiazepin-3-yl]-N'-[5-indanyl]urea] |  |
| 0.544 | 0.0116 |  | CCCN1C(=O)C(NC(=O)Nc2cccc(C)c2)N=C(N2CCC(NCC(F)(F)F)CC2)c2ccccc21 (racemic) [Example 3, N-[3(R,S)-2,3-Dihydro-2-oxo-1-propyl-5-(4-[1,1,1-trifluoroethylamine]piperidin-1-yl)-1H-1,4-benzodiazepin-3-yl]N'-[3-methylphenyl]urea] |  |
| 0.469 | 0.00282 |  | CN1C(=O)C(NC(=O)Nc2ccc3c(c2)CCC3)N=C(N(C)C2CCCCCC2)c2ccccc21 (racemic) [Example 69, N-[3(R,S)-5-(N-Cycloheptyl-N-methylamino)-2,3-dihydro-1-methyl-2-oxo-1H-1,4-benzodiazepin-3-yl]-N'-[5-indanyl]urea] |  |
| 0.831 | 0.0313 |  | Cc1cncc(NC(=O)NC2N=C(N(C)C3CCCCCC3)c3ccccc3N(C)C2=O)c1 (racemic) [Example 86, N-[3(R,S)-5-(N-Cycloheptyl)-N-methylamino)-2,3-dihydro-1-methyl-2-oxo-1H-1,4-benzodiazepin-3-yl]-N'-[3-(5-methylpyridine)]urea] |  |
|  | 0.00017 | 4.01 | Cc1cccc(NC(=O)NC2N=C(N3CC4CCC(C4)C3)c3ccccc3N(C)C2=O)c1 (single isomer, unassigned; (-)) [Example 39, (-)-N-[5-(3-Azabicyclo[3,2,1]octan-3-yl)-2,3-dihydro-1-methyl-2-oxo-1H-1,4-benzodiazepin-3-yl]-N'-[3-methylphenyl]urea Hydrochloride] |  |
| 0.0087 | 0.225 |  | CC(C)CN1C(=O)C(NC(=O)c2cc3ccccc3[nH]2)N=C(N2CCCCCC2)c2ccccc21 (racemic) [Example 90, 3(R,S)-N-(2,3-Dihydro-5-(homopiperidin-1-yl)-1-(2-methylpropyl)-2-oxo-1H-1,4-benzodiazepin-3-yl)-1H-indole-2-carboxamide] |  |
| 0.0123 | 0.0046 |  | Cc1cccc(NC(=O)NC2N=C(N3C[C@H]4CCCC[C@H]4C3)c3ccccc3N(C)C2=O)c1 (relative stereo) [Example 57, N-[3(R,S)-2,3-Dihydro-1-methyl-5-(cis-octahydroisoindol-2-yl)-2-oxo-1H-1,4-benzodiazepin-3-yl]-N'-[3-methylphenyl]urea] |  |
| 0.239 | 0.0278 |  | Cc1cccc(NC(=O)NC2N=C(N3CCC(C)(C)CC3)c3ccccc3N(CC(F)(F)F)C2=O)c1 (single isomer, unassigned) [28 (enantiomer A)] |  |
| 0.163 | 0.075 |  | C[C@@H]1CCC[C@H](C)N1C1=NC(NC(=O)Nc2ccc3c(c2)CCC3)C(=O)N(C)c2ccccc21 (single isomer, unassigned) [15 (enantiomer B)] |  |
|  |  |  | Cc1cccc(NC(=O)NC2N=C(N3CC4CCC(CC4)C3)c3ccccc3N(C)C2=O)c1 (single isomer, unassigned; (-)) [Example 33, (-)-N-[5-(3-Azabicyclo[3,2,2]nonan-3-yl)-2,3-dihydro-1-methyl-2-oxo-1H-1,4-benzodiazepin-3-yl]-N'-[3-methylphenyl]urea Hydrochloride] | 0.0001 |

| SMILES | IC50 ([1]; rat pancreas (CCK-A), 125I-CCK) [µM] | IC50 [2, 3] [µM] | IC50 [1] [µM] | IC50 [2, 4] [µM] |
| --- | --- | --- | --- | --- |
| CN1C(=O)C(NC(=O)Nc2cccc(I)c2)N=C(N2CC3CCC(CC3)C2)c2ccccc21 (single isomer, unassigned; (-)) [Example 48, (-)-N-[5-(3-Azabicyclo[3,2,2]nonan-3-yl)-2,3-dihydro-1-methyl-2-oxo-1H-1,4-benzodiazepin-3-yl]-N'-[3-iodophenyl]urea] | 2.42 |  |  | 0.00111 |
| CCCN1C(=O)C(NC(=O)Nc2cccc(C)c2)N=C(N2CC3CCC(C2)N3C)c2ccccc21 (racemic) [Example 43, N-[3(R,S)-2,3-Dihydro-5-(8-methyl-3,8-diazabicyclo[3,2,1]octan-3-yl)-2-oxo-1-propyl-1H-1,4-benzodiazepin-3-yl]-N'-[3-methylphenyl]urea] | > 3 |  |  | 0.0483 |
